Data published in US9708314B2, “Heterocyclic amide compound” (NISSAN CHEMICAL INDUSTRIES, LTD., priority 2013, dated 2017).

Columns and labels:
Type in all cases: in vivo
Leptochloa chinensis = assay: Test Example 3: herbicidal effect by application to foliage (Wagner pot, water depth 0.1-0.5 cm); conditions: Nineteenth Table; application herbicide amount 320 g/ha
Method in brief: (§1)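 Rice-field weeds and directly sown rice were grown 14 days in flooded alluvial soil (water depth 0.1–0.5 cm) at 25–30 °C in a greenhouse. An emulsion formulation diluted to the stated g/ha rate was sprayed onto stems and leaves. Effects were scored on a 0–5 scale (herbicidal ratio bands) three weeks after treatment.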

Cyperus difformis = assay: as above; conditions: Nineteenth Table; application herbicide amount 320 g/ha
Method in brief: as §1

[1] = system: Echinochloa crus-galli var. crus-galli; assay: as above; conditions: Nineteenth Table; application herbicide amount 320 g/ha
Method in brief: as §1

[2] = system: directly sowed Oryza sativa; assay: Test Example 3: effect on crop by application to foliage (Wagner pot, water depth 0.1-0.5 cm); conditions: Nineteenth Table; application herbicide amount 320 g/ha
Method in brief: as §1

Apera spica-venti. = assay: Test Example 4: herbicidal effect by application to foliage (diluvial soil, plastic box); conditions: application to foliage, application herbicide amount 320 g/ha
Method in brief: (§2)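 Seeds sown in sterilized diluvial soil, covered ~1.5 cm, grown 14 days in greenhouse at 25° C. to 30° C. Emulsion formulation diluted in water to set rate (g/ha) and sprayed onto stems and leaves. Effect scored visually 3 weeks later on 0–5 scale (5 = ≥90% herbicidal ratio, 0 = ≤5%).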

Avena fatua = assay: as above; conditions: application to foliage, application herbicide amount 320 g/ha
Method in brief: as §2

Chenopodium album = assay: as above; conditions: application to foliage, application herbicide amount 320 g/ha
Method in brief: as §2

Abutilon theophrasti = assay: as above; conditions: application to foliage, application herbicide amount 320 g/ha
Method in brief: as §2

Alopecurus myosuroides = assay: as above; conditions: application to foliage, application herbicide amount 320 g/ha
Method in brief: as §2

Lolium multiflorum Lam. = assay: as above; conditions: application to foliage, application herbicide amount 320 g/ha
Method in brief: as §2

Digitaria ciliaris = assay: as above; conditions: application to foliage, application herbicide amount 320 g/ha
Method in brief: as §2

Veronica persica = assay: as above; conditions: application to foliage, application herbicide amount 320 g/ha
Method in brief: as §2

Galium spurium = assay: as above; conditions: application to foliage, application herbicide amount 320 g/ha
Method in brief: as §2

[3] = system: Echinochloa crus-galli var. crus-galli; assay: as above; conditions: application to foliage, application herbicide amount 320 g/ha
Method in brief: as §2

Setaria viridis = assay: as above; conditions: application to foliage, application herbicide amount 320 g/ha
Method in brief: as §2

Compound: Cc1nnc(NC(=O)c2ccc(C(F)(F)F)n3c(SC(C)C)nnc23)o1 [1-033]
- D (Leptochloa chinensis) herbicidal ratio grade (Leptochloa chinensis): 5 (Herbicidal ratio of 90% or more (almost completely withered))
- E (Cyperus difformis) herbicidal ratio grade (Cyperus difformis): 5 (Herbicidal ratio of 90% or more (almost completely withered))
- H (Echinochloa crus-galli var. crus-galli) herbicidal ratio grade [1]: 5 (Herbicidal ratio of 90% or more (almost completely withered))
- b (directly sowed Oryza sativa) effect on crop grade [2]: 1 (Herbicidal ratio of 5% or more and less than 20%)
- L (Apera spica-venti.) herbicidal effect (Apera spica-venti.): 2 (Herbicidal ratio of 20% or more and less than 40%)
- I (Avena fatua) herbicidal effect (Avena fatua): 2 (Herbicidal ratio of 20% or more and less than 40%)
- O (Chenopodium album) herbicidal effect (Chenopodium album): 5 (Herbicidal ratio of 90% or more (almost completely withered))
- M (Abutilon theophrasti) herbicidal effect (Abutilon theophrasti): 5 (Herbicidal ratio of 90% or more (almost completely withered))
- J (Alopecurus myosuroides) herbicidal effect (Alopecurus myosuroides): 1 (Herbicidal ratio of 5% or more and less than 20%)
- K (Lolium multiflorum Lam.) herbicidal effect (Lolium multiflorum Lam.): 1 (Herbicidal ratio of 5% or more and less than 20%)
- F (Digitaria ciliaris) herbicidal effect (Digitaria ciliaris): 5 (Herbicidal ratio of 90% or more (almost completely withered))
- R (Veronica persica) herbicidal effect (Veronica persica): 5 (Herbicidal ratio of 90% or more (almost completely withered))
- Q (Galium spurium) herbicidal effect (Galium spurium): 3 (Herbicidal ratio of 40% or more and less than 70%)
- H (Echinochloa crus-galli var. crus-galli) herbicidal effect [3]: 5 (Herbicidal ratio of 90% or more (almost completely withered))
- G (Setaria viridis) herbicidal effect (Setaria viridis): 5 (Herbicidal ratio of 90% or more (almost completely withered))

Compound: CC[S+]([O-])c1nnc2c(C(=O)Nc3nnc(C)o3)ccc(C(F)(F)F)n12 (stereo not drawn) [1-034]
- D (Leptochloa chinensis) herbicidal ratio grade (Leptochloa chinensis): 5 (Herbicidal ratio of 90% or more (almost completely withered))
- E (Cyperus difformis) herbicidal ratio grade (Cyperus difformis): 5 (Herbicidal ratio of 90% or more (almost completely withered))
- H (Echinochloa crus-galli var. crus-galli) herbicidal ratio grade [1]: 5 (Herbicidal ratio of 90% or more (almost completely withered))
- b (directly sowed Oryza sativa) effect on crop grade [2]: 5 (Herbicidal ratio of 90% or more (almost completely withered))
- L (Apera spica-venti.) herbicidal effect (Apera spica-venti.): 3 (Herbicidal ratio of 40% or more and less than 70%)
- I (Avena fatua) herbicidal effect (Avena fatua): 3 (Herbicidal ratio of 40% or more and less than 70%)
- O (Chenopodium album) herbicidal effect (Chenopodium album): 5 (Herbicidal ratio of 90% or more (almost completely withered))
- M (Abutilon theophrasti) herbicidal effect (Abutilon theophrasti): 5 (Herbicidal ratio of 90% or more (almost completely withered))
- J (Alopecurus myosuroides) herbicidal effect (Alopecurus myosuroides): 1 (Herbicidal ratio of 5% or more and less than 20%)
- K (Lolium multiflorum Lam.) herbicidal effect (Lolium multiflorum Lam.): 3 (Herbicidal ratio of 40% or more and less than 70%)
- F (Digitaria ciliaris) herbicidal effect (Digitaria ciliaris): 5 (Herbicidal ratio of 90% or more (almost completely withered))
- R (Veronica persica) herbicidal effect (Veronica persica): 5 (Herbicidal ratio of 90% or more (almost completely withered))
- Q (Galium spurium) herbicidal effect (Galium spurium): 3 (Herbicidal ratio of 40% or more and less than 70%)
- H (Echinochloa crus-galli var. crus-galli) herbicidal effect [3]: 5 (Herbicidal ratio of 90% or more (almost completely withered))
- G (Setaria viridis) herbicidal effect (Setaria viridis): 5 (Herbicidal ratio of 90% or more (almost completely withered))

Compound: Cc1nnc(NC(=O)c2ccc(C(F)(F)F)n3c([S+]([O-])C(C)C)nnc23)o1 (stereo not drawn) [1-035]
- D (Leptochloa chinensis) herbicidal ratio grade (Leptochloa chinensis): 5 (Herbicidal ratio of 90% or more (almost completely withered))
- E (Cyperus difformis) herbicidal ratio grade (Cyperus difformis): 5 (Herbicidal ratio of 90% or more (almost completely withered))
- H (Echinochloa crus-galli var. crus-galli) herbicidal ratio grade [1]: 5 (Herbicidal ratio of 90% or more (almost completely withered))
- b (directly sowed Oryza sativa) effect on crop grade [2]: 4 (Herbicidal ratio of 70% or more and less than 90%)
- L (Apera spica-venti.) herbicidal effect (Apera spica-venti.): 3 (Herbicidal ratio of 40% or more and less than 70%)
- I (Avena fatua) herbicidal effect (Avena fatua): 2 (Herbicidal ratio of 20% or more and less than 40%)
- O (Chenopodium album) herbicidal effect (Chenopodium album): 5 (Herbicidal ratio of 90% or more (almost completely withered))
- M (Abutilon theophrasti) herbicidal effect (Abutilon theophrasti): 5 (Herbicidal ratio of 90% or more (almost completely withered))
- J (Alopecurus myosuroides) herbicidal effect (Alopecurus myosuroides): 2 (Herbicidal ratio of 20% or more and less than 40%)
- K (Lolium multiflorum Lam.) herbicidal effect (Lolium multiflorum Lam.): 2 (Herbicidal ratio of 20% or more and less than 40%)
- F (Digitaria ciliaris) herbicidal effect (Digitaria ciliaris): 5 (Herbicidal ratio of 90% or more (almost completely withered))
- R (Veronica persica) herbicidal effect (Veronica persica): 5 (Herbicidal ratio of 90% or more (almost completely withered))
- Q (Galium spurium) herbicidal effect (Galium spurium): 2 (Herbicidal ratio of 20% or more and less than 40%)
- H (Echinochloa crus-galli var. crus-galli) herbicidal effect [3]: 5 (Herbicidal ratio of 90% or more (almost completely withered))
- G (Setaria viridis) herbicidal effect (Setaria viridis): 5 (Herbicidal ratio of 90% or more (almost completely withered))

Compound: Cc1nnc(NC(=O)c2ccc(C(F)(F)F)n3c(C[S+](C)[O-])nnc23)o1 (stereo not drawn) [1-036]
- D (Leptochloa chinensis) herbicidal ratio grade (Leptochloa chinensis): 5 (Herbicidal ratio of 90% or more (almost completely withered))
- E (Cyperus difformis) herbicidal ratio grade (Cyperus difformis): 5 (Herbicidal ratio of 90% or more (almost completely withered))
- H (Echinochloa crus-galli var. crus-galli) herbicidal ratio grade [1]: 5 (Herbicidal ratio of 90% or more (almost completely withered))
- b (directly sowed Oryza sativa) effect on crop grade [2]: 4 (Herbicidal ratio of 70% or more and less than 90%)
- L (Apera spica-venti.) herbicidal effect (Apera spica-venti.): 4 (Herbicidal ratio of 70% or more and less than 90%)
- I (Avena fatua) herbicidal effect (Avena fatua): 4 (Herbicidal ratio of 70% or more and less than 90%)
- O (Chenopodium album) herbicidal effect (Chenopodium album): 5 (Herbicidal ratio of 90% or more (almost completely withered))
- M (Abutilon theophrasti) herbicidal effect (Abutilon theophrasti): 5 (Herbicidal ratio of 90% or more (almost completely withered))
- J (Alopecurus myosuroides) herbicidal effect (Alopecurus myosuroides): 3 (Herbicidal ratio of 40% or more and less than 70%)
- K (Lolium multiflorum Lam.) herbicidal effect (Lolium multiflorum Lam.): 3 (Herbicidal ratio of 40% or more and less than 70%)
- F (Digitaria ciliaris) herbicidal effect (Digitaria ciliaris): 5 (Herbicidal ratio of 90% or more (almost completely withered))
- R (Veronica persica) herbicidal effect (Veronica persica): 5 (Herbicidal ratio of 90% or more (almost completely withered))
- Q (Galium spurium) herbicidal effect (Galium spurium): 4 (Herbicidal ratio of 70% or more and less than 90%)
- H (Echinochloa crus-galli var. crus-galli) herbicidal effect [3]: 5 (Herbicidal ratio of 90% or more (almost completely withered))
- G (Setaria viridis) herbicidal effect (Setaria viridis): 5 (Herbicidal ratio of 90% or more (almost completely withered))

Compound: Cc1nnc(NC(=O)c2ccc(C(F)(F)F)n3c(CS(C)(=O)=O)nnc23)o1 [1-037]
- D (Leptochloa chinensis) herbicidal ratio grade (Leptochloa chinensis): 5 (Herbicidal ratio of 90% or more (almost completely withered))
- E (Cyperus difformis) herbicidal ratio grade (Cyperus difformis): 5 (Herbicidal ratio of 90% or more (almost completely withered))
- H (Echinochloa crus-galli var. crus-galli) herbicidal ratio grade [1]: 5 (Herbicidal ratio of 90% or more (almost completely withered))
- b (directly sowed Oryza sativa) effect on crop grade [2]: 2 (Herbicidal ratio of 20% or more and less than 40%)
- L (Apera spica-venti.) herbicidal effect (Apera spica-venti.): 3 (Herbicidal ratio of 40% or more and less than 70%)
- I (Avena fatua) herbicidal effect (Avena fatua): 3 (Herbicidal ratio of 40% or more and less than 70%)
- O (Chenopodium album) herbicidal effect (Chenopodium album): 5 (Herbicidal ratio of 90% or more (almost completely withered))
- M (Abutilon theophrasti) herbicidal effect (Abutilon theophrasti): 5 (Herbicidal ratio of 90% or more (almost completely withered))
- J (Alopecurus myosuroides) herbicidal effect (Alopecurus myosuroides): 2 (Herbicidal ratio of 20% or more and less than 40%)
- K (Lolium multiflorum Lam.) herbicidal effect (Lolium multiflorum Lam.): 2 (Herbicidal ratio of 20% or more and less than 40%)
- F (Digitaria ciliaris) herbicidal effect (Digitaria ciliaris): 5 (Herbicidal ratio of 90% or more (almost completely withered))
- R (Veronica persica) herbicidal effect (Veronica persica): 5 (Herbicidal ratio of 90% or more (almost completely withered))
- Q (Galium spurium) herbicidal effect (Galium spurium): 4 (Herbicidal ratio of 70% or more and less than 90%)
- H (Echinochloa crus-galli var. crus-galli) herbicidal effect [3]: 4 (Herbicidal ratio of 70% or more and less than 90%)
- G (Setaria viridis) herbicidal effect (Setaria viridis): 4 (Herbicidal ratio of 70% or more and less than 90%)

Compound: Cc1nnc(NC(=O)c2ccc(C(F)(F)F)n3c(C[S+]([O-])CC(F)(F)F)nnc23)o1 (stereo not drawn) [1-038]
- D (Leptochloa chinensis) herbicidal ratio grade (Leptochloa chinensis): 5 (Herbicidal ratio of 90% or more (almost completely withered))
- E (Cyperus difformis) herbicidal ratio grade (Cyperus difformis): 4 (Herbicidal ratio of 70% or more and less than 90%)
- H (Echinochloa crus-galli var. crus-galli) herbicidal ratio grade [1]: 5 (Herbicidal ratio of 90% or more (almost completely withered))
- b (directly sowed Oryza sativa) effect on crop grade [2]: 2 (Herbicidal ratio of 20% or more and less than 40%)
- L (Apera spica-venti.) herbicidal effect (Apera spica-venti.): 2 (Herbicidal ratio of 20% or more and less than 40%)
- I (Avena fatua) herbicidal effect (Avena fatua): 3 (Herbicidal ratio of 40% or more and less than 70%)
- O (Chenopodium album) herbicidal effect (Chenopodium album): 5 (Herbicidal ratio of 90% or more (almost completely withered))
- M (Abutilon theophrasti) herbicidal effect (Abutilon theophrasti): 5 (Herbicidal ratio of 90% or more (almost completely withered))
- J (Alopecurus myosuroides) herbicidal effect (Alopecurus myosuroides): 1 (Herbicidal ratio of 5% or more and less than 20%)
- K (Lolium multiflorum Lam.) herbicidal effect (Lolium multiflorum Lam.): 1 (Herbicidal ratio of 5% or more and less than 20%)
- F (Digitaria ciliaris) herbicidal effect (Digitaria ciliaris): 5 (Herbicidal ratio of 90% or more (almost completely withered))
- R (Veronica persica) herbicidal effect (Veronica persica): 5 (Herbicidal ratio of 90% or more (almost completely withered))
- Q (Galium spurium) herbicidal effect (Galium spurium): 3 (Herbicidal ratio of 40% or more and less than 70%)
- H (Echinochloa crus-galli var. crus-galli) herbicidal effect [3]: 5 (Herbicidal ratio of 90% or more (almost completely withered))
- G (Setaria viridis) herbicidal effect (Setaria viridis): 5 (Herbicidal ratio of 90% or more (almost completely withered))
